In the supplement of paper PMC10307832:

What was measured:
Assay in all cases: relative viability (nuclei count vs DMSO), 5 days (fraction); higher = more cells survive
Ruxolitinib + AZD7762 = compound: N#CC[C@H](C1CCCC1)n1cc(-c2ncnc3[nH]ccc23)cn1 [Ruxolitinib] + NC(=O)Nc1cc(-c2cccc(F)c2)sc1C(=O)N[C@H]1CCCNC1 [AZD7762] (partner 0.2 µM)
Procedure, shortened: (§1)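 Dosing by pin tool came one day after lung cancer cell lines were seeded in 1536-well plates, using either one drug or a fixed anchor-drug dose plus five library-drug doses (not always all listed) in √10 steps. After 5 days, nuclei were counted on 4× images. Relative viability is treated-well nuclei count divided by vehicle-well nuclei count, and values are medians of duplicate plates.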

Ruxolitinib + OSI-027 = compound: N#CC[C@H](C1CCCC1)n1cc(-c2ncnc3[nH]ccc23)cn1 [Ruxolitinib] + COc1cccc2cc(-c3nc([C@H]4CC[C@H](C(=O)O)CC4)n4ncnc(N)c34)[nH]c12 [OSI-027] (partner 0.5 µM)
Procedure, shortened: as §1

Ruxolitinib + Pemetrexed = compound: N#CC[C@H](C1CCCC1)n1cc(-c2ncnc3[nH]ccc23)cn1 [Ruxolitinib] + Nc1nc2[nH]cc(CCc3ccc(C(=O)N[C@@H](CCC(=O)O)C(=O)O)cc3)c2c(=O)[nH]1 [Pemetrexed] (partner 0.2 µM)
Procedure, shortened: as §1

Vismodegib + Linsitinib = compound: CS(=O)(=O)c1ccc(C(=O)Nc2ccc(Cl)c(-c3ccccn3)c2)c(Cl)c1 [Vismodegib] + C[C@]1(O)C[C@@H](c2nc(-c3ccc4ccc(-c5ccccc5)nc4c3)c3c(N)nccn32)C1 [Linsitinib] (partner 1 µM)
Procedure, shortened: as §1

| Cell Line | relative viability (Ruxolitinib + AZD7762; first compound 0.08 µM) | relative viability (Ruxolitinib + AZD7762; first compound 0.253 µM) | relative viability (Ruxolitinib + AZD7762; first compound 0.8 µM) | relative viability (Ruxolitinib + AZD7762; first compound 2.53 µM) | relative viability (Ruxolitinib + AZD7762; first compound 8 µM) | relative viability (Ruxolitinib + OSI-027; first compound 0.08 µM) | relative viability (Ruxolitinib + OSI-027; first compound 0.253 µM) | relative viability (Ruxolitinib + OSI-027; first compound 0.8 µM) | relative viability (Ruxolitinib + OSI-027; first compound 2.53 µM) | relative viability (Ruxolitinib + OSI-027; first compound 8 µM) | relative viability (Ruxolitinib + Pemetrexed; first compound 0.08 µM) | relative viability (Ruxolitinib + Pemetrexed; first compound 0.253 µM) | relative viability (Ruxolitinib + Pemetrexed; first compound 0.8 µM) | relative viability (Ruxolitinib + Pemetrexed; first compound 2.53 µM) | relative viability (Ruxolitinib + Pemetrexed; first compound 8 µM) | relative viability (Vismodegib + Linsitinib; first compound 0.08 µM) | relative viability (Vismodegib + Linsitinib; first compound 0.253 µM) | relative viability (Vismodegib + Linsitinib; first compound 0.8 µM) | relative viability (Vismodegib + Linsitinib; first compound 2.53 µM) | relative viability (Vismodegib + Linsitinib; first compound 8 µM) |
| --- | --- | --- | --- | --- | --- | --- | --- | --- | --- | --- | --- | --- | --- | --- | --- | --- | --- | --- | --- | --- |
| EMC-BAC-2 | 1.07 | 1.03 | 1.3 | 1.08 | 0.695 | 0.391 | 0.344 | 0.358 | 0.359 | 0.224 | 0.454 | 0.419 | 0.431 | 0.439 | 0.368 | 0.785 | 0.803 | 0.914 | 0.776 | 0.82 |
| 201T | 0.583 | 0.622 | 0.595 | 0.649 | 0.763 | 0.768 | 0.722 | 0.809 | 0.919 | 0.905 | 0.336 | 0.338 | 0.389 | 0.325 | 0.299 | 0.954 | 1.09 | 1 | 0.978 | 1.01 |
| NCI-H1944 | 0.576 | 0.612 | 0.642 | 0.469 | 0.68 | 0.398 | 0.38 | 0.368 | 0.374 | 0.408 | 0.671 | 0.68 | 0.651 | 0.65 | 0.694 | 1.15 | 1.33 | 1.16 | 1.19 | 1.2 |
| NCI-H441 | 1.29 | 1.09 | 1.22 | 1.16 | 1.05 | 0.675 | 0.471 | 0.836 | 0.56 | 0.521 | 0.259 | 0.252 | 0.273 | 0.231 | 0.261 | 0.419 | 0.562 | 0.48 | 0.508 | 0.653 |
| NCI-H1437 | 1.18 | 1.11 | 1.19 | 1.04 | 0.925 | 0.965 | 0.758 | 0.926 | 0.752 | 0.78 | 0.469 | 0.292 | 0.304 | 0.319 | 0.254 | 0.855 | 0.977 | 1.03 | 0.95 | 0.892 |
| EPLC-272H | 0.321 | 0.267 | 0.244 | 0.285 | 0.316 | 0.275 | 0.282 | 0.291 | 0.267 | 0.272 | 0.357 | 0.372 | 0.377 | 0.313 | 0.218 | 1.24 | 1.18 | 0.986 | 1.04 | 1.1 |
| LOU-NH91 | 0.757 | 0.664 | 0.797 | 0.74 | 0.73 | – | 0.733 | 0.729 | 0.746 | 0.686 | 0.376 | 0.338 | 0.378 | 0.354 | 0.353 | 0.926 | 0.972 | 0.916 | 0.951 | 0.961 |
| RERF-LC-KJ | 0.949 | – | 1 | 0.98 | 1.01 | 0.56 | 0.442 | 0.685 | 0.537 | 0.536 | 0.471 | 0.485 | 0.505 | 0.465 | 0.456 | 0.846 | 0.922 | 0.796 | 0.823 | 0.839 |
